How the values were obtained:
[1] = biological target: SMARCA2-VHL ternary complex (Homo sapiens, UniProt P40337+P51531); test: AlphaLISA assay measuring ternary complex formation; type: binding
Source text: Competitive-binding and proximity-based assays can also probe the degree of degrader–POI engagement or ternary complex formation (Table 1), thus allowing the determination of binding affinities and cooperativity. These techniques measure changes in the polarization of a fluorescently labeled target protein upon binding to a degrader, as in fluorescence polarization (FP),[85] or detect intensity changes, upon ternary complex formation, in the fluorescence or luminescence signal emitted from beads tagged to the POI or E3 ligase, as in time-resolved Förster resonance energy-transfer (TR-FRET)[86] or in the amplified luminescent proximity homogeneous assay (ALPHA).[87] In the proximity ligation assay (PLA), a technology that is gaining popularity in TPD research, the signal is even further amplified through antibody-attached oligonucleotide hybridization.[88] These methods have been used in TPD studies for the identification of selective degraders and for the high-throughput screening of degrader designs.[39]−[41],[89] In particular, ALPHA has a high dynamic range and signal-to-noise ratio and, when applied in a titration experiment (usually set up as an immunoassay called AlphaLISA), it yields relative populations of ternary complexes as a function of degrader concentration and is routinely employed as a tool in degrader design projects (see Section 4.2). […]

SMARCA2 = biological target: T1, SMARCA2 (Homo sapiens, UniProt P51531); test: HiBiT assay, degradation profiles; type: cell-based; conditions: VHL-recruiting degrader
T1 construct: luminescence-based reporter assays with endogeneous HiBiT-tagged proteins have been developed that yield degradation profiles; endogenous in cells
Source text: To monitor the intracellular degradation, luminescence-based reporter assays with endogeneous HiBiT-tagged proteins have been developed that yield degradation profiles, from which maximum degradation levels (Dmax) as well as the half-maximum degradation concentration (DC50) can be derived to estimate the potency of a degrader molecule,[48] which is instrumental in degrader design (see Section 4.2). As a matter of fact, variants of this technology are applied to characterize the different steps in TPD, such as target engagement, ternary complex formation, and target ubiquitination,[115] providing complementary kinetic information to the other experimental approaches discussed.
Figure 6 lists all of our designs in this study (Linkers 1–6) along with ACBI1, a previously optimized VHL-recruiting degrader of SMARCA2.[28] Informed by the random forest classifier, which was trained and validated on about 100 known compounds (model accuracy of 83%), the designs generally involve rigid linkers that contain (aromatic) ring structures with low molecular weight. […] By contrast, 34 designs that incorporated typical alkyl and PEG linkers spanning 4 to ∼20 atoms as well as known linker moieties, such as triazoles and phenyl rings (o, m, or p-substituted to provide different geometries), only produced two active degraders.
Figure 7 Experimental confirmation of degrader designs. […]

T1 sequence (P51531 whole entry): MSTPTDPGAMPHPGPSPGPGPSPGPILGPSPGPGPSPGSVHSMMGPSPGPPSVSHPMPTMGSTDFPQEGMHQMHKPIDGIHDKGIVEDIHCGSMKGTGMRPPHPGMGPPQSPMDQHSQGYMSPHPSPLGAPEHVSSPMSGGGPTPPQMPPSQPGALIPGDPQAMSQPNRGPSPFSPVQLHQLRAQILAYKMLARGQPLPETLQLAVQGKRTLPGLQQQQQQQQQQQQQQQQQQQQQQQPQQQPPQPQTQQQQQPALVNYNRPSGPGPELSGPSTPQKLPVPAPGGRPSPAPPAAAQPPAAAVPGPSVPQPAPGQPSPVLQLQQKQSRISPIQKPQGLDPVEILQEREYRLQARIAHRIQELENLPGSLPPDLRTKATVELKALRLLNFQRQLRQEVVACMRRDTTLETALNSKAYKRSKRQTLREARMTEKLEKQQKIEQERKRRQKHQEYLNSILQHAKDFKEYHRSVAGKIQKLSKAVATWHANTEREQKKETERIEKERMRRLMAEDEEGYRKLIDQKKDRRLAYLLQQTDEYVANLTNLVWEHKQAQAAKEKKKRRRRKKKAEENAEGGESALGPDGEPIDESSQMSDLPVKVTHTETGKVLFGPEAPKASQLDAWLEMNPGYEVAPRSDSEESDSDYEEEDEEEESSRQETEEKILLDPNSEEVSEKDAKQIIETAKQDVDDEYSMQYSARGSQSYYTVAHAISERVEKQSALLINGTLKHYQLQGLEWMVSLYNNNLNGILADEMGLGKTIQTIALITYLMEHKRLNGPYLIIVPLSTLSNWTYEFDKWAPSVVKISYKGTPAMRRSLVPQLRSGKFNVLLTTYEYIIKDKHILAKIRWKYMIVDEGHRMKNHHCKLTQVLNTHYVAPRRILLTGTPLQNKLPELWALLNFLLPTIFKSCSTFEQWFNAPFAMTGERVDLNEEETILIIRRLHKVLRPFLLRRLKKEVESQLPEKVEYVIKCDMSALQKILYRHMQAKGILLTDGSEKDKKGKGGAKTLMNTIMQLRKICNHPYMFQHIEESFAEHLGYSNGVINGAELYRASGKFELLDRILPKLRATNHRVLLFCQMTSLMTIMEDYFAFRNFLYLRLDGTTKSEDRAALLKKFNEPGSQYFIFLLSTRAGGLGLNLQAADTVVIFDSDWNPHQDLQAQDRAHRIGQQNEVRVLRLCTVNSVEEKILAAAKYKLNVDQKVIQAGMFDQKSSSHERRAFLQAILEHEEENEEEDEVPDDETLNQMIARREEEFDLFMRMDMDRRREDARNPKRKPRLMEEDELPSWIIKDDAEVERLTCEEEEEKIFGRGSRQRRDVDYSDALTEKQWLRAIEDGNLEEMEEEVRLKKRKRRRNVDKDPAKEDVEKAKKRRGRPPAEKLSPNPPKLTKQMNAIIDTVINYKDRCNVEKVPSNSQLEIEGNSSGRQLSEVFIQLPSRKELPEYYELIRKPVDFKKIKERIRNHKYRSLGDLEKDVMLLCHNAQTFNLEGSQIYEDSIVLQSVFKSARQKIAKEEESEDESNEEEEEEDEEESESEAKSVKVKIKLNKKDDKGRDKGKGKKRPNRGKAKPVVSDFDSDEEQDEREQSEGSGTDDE
SMARCA2-VHL ternary complex, sequence (P51531 1373-1511 limits assumed): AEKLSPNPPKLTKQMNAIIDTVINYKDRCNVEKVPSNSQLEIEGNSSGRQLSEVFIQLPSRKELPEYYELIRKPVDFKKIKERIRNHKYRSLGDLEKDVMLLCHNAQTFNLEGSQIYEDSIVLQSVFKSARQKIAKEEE
SMARCA2-VHL ternary complex, sequence (P40337 54-213 limits assumed): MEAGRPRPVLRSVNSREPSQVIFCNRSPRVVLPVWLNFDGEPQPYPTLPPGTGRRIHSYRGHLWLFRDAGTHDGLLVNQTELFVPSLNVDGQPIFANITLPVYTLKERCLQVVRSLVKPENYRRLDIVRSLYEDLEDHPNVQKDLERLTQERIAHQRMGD
SMARCA2-VHL ternary complex, sequence (Q15369 17-112 partner limits assumed): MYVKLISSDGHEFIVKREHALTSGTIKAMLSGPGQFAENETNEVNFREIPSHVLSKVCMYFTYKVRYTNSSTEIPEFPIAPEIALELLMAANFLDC
SMARCA2-VHL ternary complex, sequence (Q15370 1-104 partner limits assumed): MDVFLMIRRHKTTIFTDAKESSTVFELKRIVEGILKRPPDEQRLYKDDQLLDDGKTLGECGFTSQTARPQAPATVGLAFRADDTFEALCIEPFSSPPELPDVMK

AlphaLISA (% of control) [1]: 100 % of control
DC50 (SMARCA2): 37 nM
Dmax (SMARCA2): 94%
SMILES: Cc1ncsc1-c1ccc(CNC(=O)[C@@H]2C[C@@H](O)CN2C(=O)[C@@H](NC(=O)C2(F)CC2)C(C)(C)C)c(OCCOc2ccc(CN3CCN(c4cc(-c5ccccc5O)nnc4N)CC3)cc2)c1 [ACBI1]

From publication PMC10498452, “Targeted Protein Degradation: Advances, Challenges, and Prospects for Computational Methods” (Journal of Chemical Information and Modeling, 2023)
